Measurements published in patent US20240390335A1, “PHARMACEUTICAL COMPOSITION CONTAINING BETA-LACTAM COMPOUND AND USE THEREOF” (priority 2021, published 2024).
In brackets after ≈: the same amount, converted by molar mass. Like-named read-outs stand apart in the source and are kept apart here. Values belong to the compound of their own block, whether it stands above or below them. Peptide text beside a SMILES is read from it. * marks the point of attachment. βNA = c1ccc2cc(N*)ccc2c1

Assays:
Type in all cases: cell-based
Acinetobacter baumannii [1] = experiment: MIC assay of individual compounds (microdilution, CLSI/NCCLS)
Method: (§1) Mueller-Hinton broth (MH broth) medium, Trypticase Soy Broth (TSB Broth) medium, purchased from BD Difco, Cockeysville, MD, USA; • 96-well plate: Corning Costar, Cambridge, MA, USA; • Test method: the antibacterial activities were tested by the microdilution method according to the CLSI/NCCLS standard.
(§2) (1) Preparation of the test samples: 4 mg of each sample was taken, and was prepared into a test solution at 1,024 μg/mL with MH broth, and the test solution was diluted two-fold in a 96-well plate to prepare solutions of a series of gradient concentrations, the volume in each well being 90 μL.
(§3) (2) Preparation of a bacteria solution: The test strains were amplified by Trypticase Soy Broth (TSB Broth) according to the CLSI/NCCLS standard.
(§4) (3) Addition of the samples: a bacteria solution with a concentration of 6×10^5 cfu/mL was prepared, and 10 μL of the bacteria solution was pipetted into each well of the 96-well plate. Three parallel experiments were set up for each concentration and the results were averaged. To the negative control group, 10 μL of the bacterial solution and 90 μL MH broth were added.
(§5) (4) Incubation: the 96-well plate was placed in a 37° C. constant-temperature incubator for 18 hours, and the growth of the strains was observed. The drug concentration in the well with no microbial growth was recorded as the MIC.

Pseudomonas aeruginosa [2] = experiment: as above
Method: as §1, §2, §3, §4, §5

Acinetobacter baumannii [3] = experiment: Combined in vitro use, checkerboard dilution method
Method: (§6) Mueller-Hinton broth (MH broth) medium, Trypticase Soy Broth (TSB Broth) medium, purchased from BD Difco, Cockeysville, MD, USA; • 96-well plate: Corning Costar, Cambridge, MA, USA; • Test method: the checkerboard dilution method was used for determination.
(§7) (1) Preparation of the test samples: 4 mg of each sample was taken and was prepared into a test solution at 2,048 μg/mL with MH broth, and the test solution was diluted two-fold in a 96-well plate to prepare solutions of a series of gradient concentrations.
as §3
(§8) (3) Addition of the samples: 10 μL of the bacteria solution with a concentration of 6×10^5 CFU/mL was pipetted into each well of the 96-well plate. Each well contained the antibacterial drugs (the compound of formula (I-1) and the compound of formula (I-2)) diluted two-fold with broth and the aforementioned lactamase inhibitor or efflux pump inhibitor. […] The samples were mixed thoroughly. Three parallel experiments were set up for each concentration and the results were averaged. To the negative control group, 10 μL of the bacterial solution and 90 μL MH broth were added.
(§9) (4) Incubation: the 96-well plate was placed in a 37° C. constant-temperature incubator for 18 hours, and the growth of the strains was observed.
(§10) (5) Calculation: The in vitro effect of each drug-inhibitor combination was analyzed by calculating the FICI value: FICI=(MIC of drug A in the combination/MIC of drug A alone)+ (MIC of drug B in the combination/MIC of drug B alone).
(§11) In order to ensure the reliability of the data, three repeated tests were conducted on different dates and the results were averaged.

[4] = tested on: Acinetobacter baumannii or Pseudomonas aeruginosa; experiment: MIC assay of individual compounds, summary over non-fermenter strains; conditions: various Acinetobacter baumannii or Pseudomonas aeruginosa strains
Method: as §1, §2, §3, §4, §5

Enterobacter cloacae = experiment: MIC assay of individual compounds (microdilution, CLSI/NCCLS)
Method: as §1, §2, §3, §4, §5

Escherichia coli [5] = experiment: as above
Method: as §1, §2, §3, §4, §5

Klebsiella pneumoniae [6] = experiment: as above
Method: as §1, §2, §3, §4, §5

Klebsiella pneumoniae [7] = experiment: Combined in vitro use, checkerboard dilution method
Method: as §6, §7, §3, §8, §9, §10, §11

[8] = tested on: drug-resistant Enterobacteriaceae strains; experiment: Checkerboard combination, summary over Enterobacteriaceae strains; conditions: combined with avibactam; all of the 4 drug-resistant Enterobacteriaceae strains tested
Method: as §6, §7, §3
as §8, with “To the negative control group, 10 μL of the bacterial solution and 90 μL MH broth were added.” left out
(5) Calculation: The in vitro effect of each drug-inhibitor combination was analyzed by calculating the FICI value: FICI=(MIC of drug A in the combination/MIC of drug A alone)+ (MIC of drug B in the combination/MIC of drug B alone). […]

Pseudomonas aeruginosa [9] = experiment: Combined in vitro use, checkerboard dilution method
Method: as §6, §7, §3, §8, §9, §10, §11

[10] = tested on: drug-resistant Enterobacteriaceae; experiment: MIC assay of individual compounds, summary over Enterobacteriaceae strains; conditions: against the aforementioned Enterobacteriaceae
Method: as §1, §2, §3, §4, §5

Escherichia coli [11] = experiment: Combined in vitro use, checkerboard dilution method; conditions: compound of formula (I-1) combined with vaborbactam; Escherichia coli CCPM(A)-P-071301
Method: as §6, §7, §3, §8, §9, §10, §11

[12] = ATCC17978, individual compound, Acinetobacter baumannii ATCC 17978, read-out: MIC
[13] = ATCC19606, individual compound, Acinetobacter baumannii ATCC 19606, read-out: MIC
[14] = individual compound, Pseudomonas aeruginosa PAO1(CCPM(A)-P-09000032), read-out: MIC
[15] = ATCC2468, individual compound, Enterobacter cloacae ATCC 2468, read-out: MIC
[16] = ATCC2469, individual compound, Escherichia coli ATCC 2469, read-out: MIC
[17] = individual compound, Escherichia coli CCPM(A)-P-071301, read-out: MIC
[18] = Klebsiella pneumoniae, ATCC2146, individual compound, Klebsiella pneumoniae ATCC 2146, read-out: MIC
[19] = Klebsiella pneumoniae, ATCC700603, individual compound, Klebsiella pneumoniae ATCC 700603, read-out: MIC
[20] = Klebsiella pneumoniae, individual compound, Klebsiella pneumoniae CCPM(A)-0814R18, read-out: MIC
[21] = Klebsiella pneumoniae, individual compound, Klebsiella pneumoniae CCPM(A)-0814R33, read-out: MIC
[22] = Klebsiella pneumoniae, individual compound, Klebsiella pneumoniae CCPM(A)-081301, read-out: MIC
[23] = Klebsiella pneumoniae, individual compound, Klebsiella pneumoniae CCPM(A)-081715, read-out: MIC
[24] = Klebsiella pneumoniae, individual compound, Klebsiella pneumoniae CCPM(A)-081716, read-out: MIC

Compound: CC1(C)[C@H](NC(=O)/C(=N\OC2(C(=O)O)CCC2)c2csc(N)n2)C(=O)N1OS(=O)(=O)O [Compound of formula (I-2)]
MIC (Enterobacter cloacae; [15]): 2 µg/mL
MIC (Escherichia coli [5]; [16]): 1 µg/mL
MIC (Escherichia coli [5]; [17]): 1 µg/mL
MIC (Klebsiella pneumoniae [6]; [18]): 2 µg/mL
MIC (Klebsiella pneumoniae [6]; [19]): 2 µg/mL
MIC (Klebsiella pneumoniae [6]; [20]): 2 µg/mL
MIC (Klebsiella pneumoniae [6]; [21]): 2 µg/mL
MIC (Klebsiella pneumoniae [6]; Klebsiella pneumoniae, individual compound, Klebsiella pneumoniae CCPM(A)-0817R61, read-out: MIC): 32 µg/mL
MIC (Klebsiella pneumoniae [6]; [22]): 2 µg/mL
MIC (Klebsiella pneumoniae [6]; Klebsiella pneumoniae, individual compound, Klebsiella pneumoniae CCPM(A)-081705, read-out: MIC): 2 µg/mL
MIC (Klebsiella pneumoniae [6]; [23]): 1 µg/mL
MIC (Klebsiella pneumoniae [6]; [24]): 32 µg/mL
MIC (Klebsiella pneumoniae [6]; Klebsiella pneumoniae, individual compound, Klebsiella pneumoniae CCPM(A)-081729, read-out: MIC): 1 µg/mL
MIC in combination (Klebsiella pneumoniae [7]; compound of formula (I-2) combined with avibactam, Klebsiella pneumoniae ATCC 2146): 0.5 µg/mL
MIC in combination (Klebsiella pneumoniae [7]; compound of formula (I-2) combined with avibactam, Klebsiella pneumoniae ATCC 700603): 0.5 µg/mL
MIC in combination (Klebsiella pneumoniae [7]; compound of formula (I-2) combined with avibactam, Klebsiella pneumoniae CCPM(A)-081715): 0.5 µg/mL
MIC in combination (Klebsiella pneumoniae [7]; compound of formula (I-2) combined with avibactam, Klebsiella pneumoniae CCPM(A)-081729): 0.5 µg/mL
change of MIC values on combination [8]: significantly reduced

Compound: N=C(N)NCCC[C@H](NC(=O)[C@@H](N)Cc1ccccc1)C(=O)Nc1ccc2ccccc2c1 [PAβN, PaβN] (H-Phe-Arg-βNA)
MIC (Acinetobacter baumannii [1]; [12]): > 256 µg/mL
MIC (Acinetobacter baumannii [1]; [13]): > 256 µg/mL
MIC (Acinetobacter baumannii [1]; Acinetobacter baumannii): > 256 µg/mL
MIC (Pseudomonas aeruginosa [2]; Pseudomonas aeruginosa): > 256 µg/mL
MIC (Pseudomonas aeruginosa [2]; Pseudomonas aeruginosa, ATCC27853): > 256 µg/mL
MIC (Pseudomonas aeruginosa [2]; Pseudomonas aeruginosa, PAO1): > 256 µg/mL
MIC in combination (Acinetobacter baumannii [3]; compound of formula (I-1) combined with PAβN, Acinetobacter baumannii CCPM(A)-P-101633(CRAB)): >0.5 µg/mL
MIC in combination (Pseudomonas aeruginosa [9]; compound of formula (I-1) combined with PAβN, Pseudomonas aeruginosa ATCC27853): 64 µg/mL
MIC in combination (Pseudomonas aeruginosa [9]; compound of formula (I-1) combined with PAβN, Pseudomonas aeruginosa CCPM(A)-P-091626(CRPA)): 128 µg/mL
MIC in combination (Pseudomonas aeruginosa [9]; compound of formula (I-1) combined with PAβN, Pseudomonas aeruginosa PAO1(CCPM(A)-P-09000032)): 64 µg/mL
activity of the inhibitor itself [4]: relatively weak activities

Compound: O=C(NC1CCNCC1)[C@@H]1CC[C@@H]2CN1C(=O)N2OS(=O)(=O)O [Relebactam, relebactam]
MIC (Enterobacter cloacae; [15]): 128 µg/mL (≈ 367 µM)
MIC (Enterobacter cloacae; individual compound, Enterobacter cloacae CCPM(A)-P-111719, read-out: MIC): 128 µg/mL (≈ 367 µM)
MIC (Escherichia coli [5]; [16]): 64 µg/mL (≈ 184 µM)
MIC (Escherichia coli [5]; [17]): 64 µg/mL (≈ 184 µM)
MIC (Klebsiella pneumoniae [6]; [18]): 64 µg/mL (≈ 184 µM)
MIC (Klebsiella pneumoniae [6]; [19]): 64 µg/mL (≈ 184 µM)
MIC (Klebsiella pneumoniae [6]; [20]): 64 µg/mL (≈ 184 µM)
MIC (Klebsiella pneumoniae [6]; [21]): 64 µg/mL (≈ 184 µM)
MIC (Klebsiella pneumoniae [6]; [22]): > 128 µg/mL
MIC (Klebsiella pneumoniae [6]; [23]): 64 µg/mL (≈ 184 µM)
MIC (Klebsiella pneumoniae [6]; [24]): 128 µg/mL (≈ 367 µM)
MIC in combination (Klebsiella pneumoniae [7]; compound of formula (I-1) combined with relebactam, Klebsiella pneumoniae ATCC 2146): 0.5 µg/mL
MIC in combination (Klebsiella pneumoniae [7]; compound of formula (I-1) combined with relebactam, Klebsiella pneumoniae ATCC 700603): 8 µg/mL
activity of the inhibitor itself [10]: relatively weak activities

Compound: O=C(O)C[C@@H]1CC[C@H](NC(=O)Cc2cccs2)B(O)O1 [Vaborbactam, vaborbactam]
MIC (Enterobacter cloacae; Enterobacter cloacae): > 128 µg/mL
MIC (Enterobacter cloacae; Enterobacter cloacae, ATCC2468): > 128 µg/mL
MIC (Escherichia coli [5]; Escherichia coli): > 128 µg/mL
MIC (Escherichia coli [5]; Escherichia coli, ATCC2469): > 128 µg/mL
MIC (Klebsiella pneumoniae [6]; Klebsiella pneumoniae): > 128 µg/mL
MIC (Klebsiella pneumoniae [6]; Klebsiella pneumoniae, ATCC2146): > 128 µg/mL
MIC (Klebsiella pneumoniae [6]; Klebsiella pneumoniae, ATCC700603): > 128 µg/mL
MIC (Klebsiella pneumoniae [6]; individual compound, Klebsiella pneumoniae CCPM(A)-0814R33): >128 µg/mL
MIC (Klebsiella pneumoniae [6]; individual compound, Klebsiella pneumoniae CCPM(A)-081301): >128 µg/mL
MIC (Klebsiella pneumoniae [6]; individual compound, Klebsiella pneumoniae CCPM(A)-081715): >128 µg/mL
MIC (Klebsiella pneumoniae [6]; individual compound, Klebsiella pneumoniae CCPM(A)-081716): >128 µg/mL
MIC in combination (Escherichia coli [11]): 0.5 µg/mL
MIC in combination (Klebsiella pneumoniae [7]; compound of formula (I-1) combined with vaborbactam, Klebsiella pneumoniae ATCC 700603): 8 µg/mL
MIC in combination (Klebsiella pneumoniae [7]; compound of formula (I-1) combined with vaborbactam, Klebsiella pneumoniae CCPM(A)-0814R33): 2 µg/mL
activity of the inhibitor itself [10]: relatively weak activities

More lines, main results first:

MIC (Acinetobacter baumannii [1]; [12]): > 1020 µg/mL
MIC (Acinetobacter baumannii [1]; [13]): > 1020 µg/mL
MIC (Acinetobacter baumannii [1]; individual compound, Acinetobacter baumannii CCPM(A)-P-101633(CRAB), read-out: MIC): > 1020 µg/mL
MIC (Pseudomonas aeruginosa [2]; individual compound, Pseudomonas aeruginosa ATCC27853, read-out: MIC): > 1020 µg/mL
MIC (Pseudomonas aeruginosa [2]; individual compound, Pseudomonas aeruginosa CCPM(A)-P-091626(CRPA), read-out: MIC): > 1020 µg/mL
MIC (Pseudomonas aeruginosa [2]; [14]): > 1020 µg/mL
MIC in combination (Acinetobacter baumannii [3]; compound of formula (I-1) combined with berberine, Acinetobacter baumannii ATCC 19606): 32 µg/mL
MIC in combination (Acinetobacter baumannii [3]; compound of formula (I-1) combined with berberine, Acinetobacter baumannii CCPM(A)-P-101633(CRAB)): >0.5 µg/mL
Compound: COc1ccc2cc3[n+](cc2c1OC)CCc1cc2c(cc1-3)OCO2 [Berberine, berberine]
activity of the inhibitor itself [4]: relatively weak activities

MIC (Acinetobacter baumannii [1]; [13]): > 256 µg/mL
MIC (Pseudomonas aeruginosa [2]; [14]): > 256 µg/mL
MIC in combination (Acinetobacter baumannii [3]; compound of formula (I-1) combined with conessine, Acinetobacter baumannii ATCC 19606): 4 µg/mL
MIC in combination (Pseudomonas aeruginosa [9]; compound of formula (I-1) combined with conessine, Pseudomonas aeruginosa PAO1(CCPM(A)-P-09000032)): >256 µg/mL
Compound: C[C@H]1[C@H]2CC[C@H]3[C@@H]4CC=C5C[C@@H](N(C)C)CC[C@]5(C)[C@H]4CC[C@]23CN1C [Conessine, conessine]
activity of the inhibitor itself [4]: relatively weak activities
